Source: PubChem BioAssay AID434951 (Broad Institute, 2010)
Calls of active or inactive are those of the source.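 How the source made its calls: active means a fitted half-maximal concentration EC50 for the rise in nuclear signal no higher than ten times the top dose tested; inconclusive means flat fit with activity between 30% and 70%, or unusable fit; inactive means EC50 beyond ten times the top dose.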

These compounds were tested against Hypoxia-inducible factor 1-alpha (Homo sapiens) (UniProt Q16665) (assay: activators of HIF1alpha nuclear accumulation, confirmation, imaging, fluorescence, U2OS GFP-HIF1alpha (AID 434951)). Conditions: U2OS GFP-HIF1alpha nuclear intensity, high-content imaging.
Sequence of Hypoxia-inducible factor 1-alpha (Homo sapiens) (Q16665 whole entry, looked up): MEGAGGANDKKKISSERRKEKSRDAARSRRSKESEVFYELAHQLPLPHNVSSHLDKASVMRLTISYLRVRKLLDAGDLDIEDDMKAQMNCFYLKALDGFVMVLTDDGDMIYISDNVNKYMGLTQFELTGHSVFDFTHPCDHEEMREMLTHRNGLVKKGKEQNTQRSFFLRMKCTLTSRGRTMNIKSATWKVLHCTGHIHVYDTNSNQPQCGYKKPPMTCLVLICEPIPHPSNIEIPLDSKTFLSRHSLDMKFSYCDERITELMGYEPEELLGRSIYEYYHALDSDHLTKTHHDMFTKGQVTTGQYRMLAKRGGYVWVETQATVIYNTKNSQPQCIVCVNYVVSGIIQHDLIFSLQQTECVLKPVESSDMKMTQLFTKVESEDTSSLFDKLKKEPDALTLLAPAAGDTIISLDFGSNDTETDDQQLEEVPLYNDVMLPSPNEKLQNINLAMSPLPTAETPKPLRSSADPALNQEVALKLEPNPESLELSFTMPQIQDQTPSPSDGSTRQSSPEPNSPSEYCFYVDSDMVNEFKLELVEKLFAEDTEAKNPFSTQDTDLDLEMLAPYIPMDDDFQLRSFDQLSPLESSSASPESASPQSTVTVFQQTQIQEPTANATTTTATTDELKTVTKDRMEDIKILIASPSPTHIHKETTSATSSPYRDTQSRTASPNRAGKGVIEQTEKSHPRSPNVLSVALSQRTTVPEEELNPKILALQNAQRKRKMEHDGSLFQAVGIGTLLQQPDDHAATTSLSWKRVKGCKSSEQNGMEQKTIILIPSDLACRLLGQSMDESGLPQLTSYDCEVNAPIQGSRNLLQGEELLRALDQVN
For `CC(=O)NC(c1ccc(Cl)cc1Cl)c1ccc2cccnc2c1O` (stereo unspecified), the EC50 was 12.8 µM. In the case of `CCN(CC)c1ccc(/C=N/NC(=O)c2cccc(S(=O)(=O)Nc3ccccc3OC)c2)c(O)c1`, the EC50 is reported as 0.838 µM. With `COc1cc(OC)c2nc(C)c3c(c2c1)N(c1ccc(O)cc1)CC3` the EC50 was > 35 µM (inactive). Compound `COc1ccc(O)c(/C=N/NC(=O)c2ccc(OCc3cccc(Br)c3)cc2)c1` has an EC50 of 5.72 µM. For `CCc1nc(N2CCN(C(=O)c3ccco3)CC2)c2c3c(sc2n1)CCCC3`, the EC50 was > 35 µM (inactive). `O=C(NS(=O)(=O)c1ccc2c(c1)OCCO2)c1ccccc1` was tested, and the EC50 was > 35 µM (inactive). With `CC(C)NC(=S)NN=C1c2ccccc2-c2ccccc21` the EC50 was > 35 µM (inactive). In the case of `COc1ccc(CC(=O)Nc2cccc(-c3nnc(-c4ccccc4)o3)c2)cc1OC`, the EC50 is reported as > 35 µM (inactive). `CCOc1nc(NCCN2CCOCC2)nc(Nc2ccc(C)cc2)n1` was tested, and the EC50 was > 35 µM (inactive). For `COCCNC(=O)c1sc2nc(-c3ccccc3)cn2c1C`, the EC50 was > 35 µM (inactive). With `CN(C1CCCC1)C1CCN(C(=S)Nc2cc(F)cc(F)c2)CC1` the EC50 was > 35 µM (inactive). In the case of `Cc1ccc(-c2nc3ccccc3nc2NN)cc1`, the EC50 is reported as > 35 µM (inactive). For `CNNC(=O)C(C)NC(=O)c1ccc(Br)cc1` (stereo unspecified), the EC50 was > 35 µM (inactive). With `COc1ccccc1CNC(=O)c1cccc(NC(=O)c2ccccc2)c1` the EC50 was > 35 µM (inactive). With `O=C(O)c1ccc2cc(-c3ccccc3)[nH]c2c1` the EC50 was > 35 µM (inactive). `O=C1CCCC2=C1C(Cc1ccccc1)C1=C(CCCC1=O)O2` was tested, and the EC50 was > 35 µM (inactive). In the case of `CCOC(=O)c1c(S(=O)(=O)N2CCCC2)c(C)n(C)c1C`, the EC50 is reported as > 35 µM (inactive). `O=C(COC(=O)c1cccc(S(=O)(=O)N2CCOCC2)c1)Nc1ncc(C(F)(F)F)cc1Cl` was tested, and the EC50 was > 35 µM (inactive). With `O=C1CSCN1c1ccc(Cl)cc1` the EC50 was > 35 µM (inactive). In the case of `Nc1ccnn1-c1ccccc1`, the EC50 is reported as > 35 µM (inactive). `O=[N+]([O-])c1ccc(OCCCCN2CCCCC2)cc1` was tested, and the EC50 was > 35 µM (inactive). `CCc1cc(C(=O)N/N=C/c2ccc(O)cc2O)c2ccccc2n1` gave an EC50 of 17.5 µM. In the case of `O/N=C1/C2C3CC4C5C3C1C5C1(OCCO1)C42` (stereo unspecified), the EC50 is reported as > 35 µM (inactive). `NS(=O)(=O)c1ccc(NC(=O)c2ccc(CSc3ccccc3)o2)cc1` was tested, and the EC50 was > 35 µM (inactive). With `CCN(C(=O)CSc1ncn[nH]1)C1CCCCC1` the EC50 was > 35 µM (inactive). For `COc1ccc(CSCC(=O)Nc2ccc(S(=O)(=O)N3CCCCCC3)cc2)cc1`, the EC50 was > 35 µM (inactive). In the case of `CCN(CC)CCC(=O)Nc1cccc2c1C(=O)c1ccccc1C2=O`, the EC50 is reported as > 35 µM (inactive). In the case of `COc1ccc(C(=O)N2CCCCCC2)cc1S(=O)(=O)N1CCOCC1`, the EC50 is reported as > 35 µM (inactive). With `CCC(=O)N1CCc2cc(S(=O)(=O)NCCC(=O)N3CCN(c4cccc(OC)c4)CC3)ccc21` the EC50 was > 35 µM (inactive). For `CCOC(=O)c1c(-c2ccccc2)oc2ccc(OCC(O)CN(C)C)cc12` (stereo unspecified), the EC50 was 33.8 µM. With `CCOC(=O)C(NC(C)=O)(N1CCOCC1)C(F)(F)F` (stereo unspecified) the EC50 was > 35 µM (inactive). For `CCCCn1c(/C=N/Nc2nc3ccccc3[nH]2)nc2ccccc21`, the EC50 was 7.81 µM. With `CCCOc1cccc(C2C(C(=O)c3ccco3)=C(O)C(=O)N2CCCn2ccnc2)c1` (stereo unspecified) the EC50 was > 35 µM (inactive). `O=C(N/N=C/c1cc2cc3c(cc2nc1Cl)OCO3)c1ccncc1` was tested, and the EC50 was > 35 µM (inactive). `Cc1ccc2nc(SCC(=O)c3ccccc3)nc(=O)n2c1` was tested, and the EC50 was > 35 µM (inactive). `CC(C)c1ccc(N(C(=O)c2snc(C(N)=O)c2N)C(C(=O)NC2CCCC2)c2ccncc2)cc1` (stereo unspecified) showed an EC50 of 21.4 µM. Compound `Cn1c(NN=O)nc2ccccc21` has an EC50 of 9.61 µM. `C=CCc1cccc(/C=N/NC(=O)c2ccc3nc[nH]c3c2)c1O` showed an EC50 of 34.6 µM. For `CCC(=O)n1nc(NCc2ccc(OC)c(OC)c2)nc1NCc1ccc(OC)c(OC)c1`, the EC50 was > 35 µM (inactive). `CC[C@@]1(O)C(=O)OCc2c1cc1n(c2=O)Cc2cc3c(N)cccc3nc2-1` was tested, and the EC50 was > 35 µM (inactive). With `CCCCc1nnc(NC(=O)c2ccc3[nH]c(=O)c(=O)[nH]c3c2)s1` the EC50 was > 35 µM (inactive). For `Cn1ncc(Br)c1NC(=O)CSc1ccc(Cl)cc1`, the EC50 was > 35 µM (inactive). `COc1cnc(-c2ccccn2)nc1N(C)C` was tested, and the EC50 was 5.92 µM. `O=[N+]([O-])c1cccc(/C=C/c2ccc3cccc(O)c3n2)c1` gave an EC50 of 33.9 µM. `Cc1ccnc(NS(=O)(=O)c2cc([N+](=O)[O-])ccc2C)c1` was tested, and the EC50 was > 35 µM (inactive). In the case of `CCCCNc1nc(N)nc(-c2cc(Cl)ccc2O)n1`, the EC50 is reported as > 35 µM (inactive). For `CCN(Cc1ccccc1)C(=O)CCNS(=O)(=O)c1ccc2c(c1)CC(C)N2C(C)=O` (stereo unspecified), the EC50 was > 35 µM (inactive). With `CCN(CC)CCNCc1nc2ccccc2c(=O)n1-c1ccc(F)cc1` the EC50 was > 35 µM (inactive). With `c1ccc(-c2nnc(-c3ccccn3)nc2NC2CCCCC2)cc1` the EC50 was 6.78 µM. `CCCCCCCC1CC(=O)C=C(C)C1C(=O)OCC` (stereo unspecified) was tested, and the EC50 was > 35 µM (inactive). `O=C(/C=C/c1cn(-c2ccccc2)nc1-c1ccccc1)Nc1ccc(C(=O)O)cc1` was tested, and the EC50 was > 35 µM (inactive). In the case of `C=C(C)Cn1c(CCNC(=O)C(C)C)nc2ccccc21`, the EC50 is reported as > 35 µM (inactive). With `O=C(N/N=C/c1ccccn1)c1ccc(Br)cc1` the EC50 was 12.2 µM. In the case of `COc1cccc(/C=N\NC(=O)Cn2nnc3ccccc32)c1O`, the EC50 is reported as > 35 µM (inactive). In the case of `Cc1[nH]n(-c2ccccc2)c(=O)c1N=Nc1ccc2c(c1)OCCO2`, the EC50 is reported as > 35 µM (inactive). For `CCN1CCN(c2ncnc3ccc(Br)cc23)CC1`, the EC50 was > 35 µM (inactive). In the case of `CC(C(=O)Nc1ccccc1-c1ccccc1)N1CCN(C(=O)c2ccccc2)CC1` (stereo unspecified), the EC50 is reported as > 35 µM (inactive). `COc1cccc(-c2cc(C(F)(F)F)n3nc(C(=O)N4CCC5(CC4)OCCO5)cc3n2)c1` was tested, and the EC50 was > 35 µM (inactive). `COc1ccc(/C=C2\SC(=O)N(CCC(=O)N(C)C3CCS(=O)(=O)C3)C2=O)cc1` (stereo unspecified) was tested, and the EC50 was > 35 µM (inactive). In the case of `COc1cccc(/C=N/NC(=O)c2c(C)nc3ccc(Br)cn23)c1O`, the EC50 is reported as 5.52 µM. Compound `COc1ccc(/C(C)=N/NC(=O)c2cccc(S(=O)(=O)N3CCCC3)c2)c(O)c1` has an EC50 of 5.8 µM. In the case of `CCCCc1c(C)nc(N)[nH]c1=O`, the EC50 is reported as > 35 µM (inactive). In the case of `O=[N+]([O-])c1ccc(N=Cc2ccc(Br)c([N+](=O)[O-])c2)cc1`, the EC50 is reported as 15.4 µM. `O=C(NCCCN1CCN(c2ccccc2F)CC1)Nc1ccccc1[N+](=O)[O-]` was tested, and the EC50 was > 35 µM (inactive). For `COc1ccc(CCNc2nncc(=O)[nH]2)cc1OC`, the EC50 was > 35 µM (inactive). Work on `CC(C)CC(=O)NC(c1cccs1)c1ccc2cccnc2c1O` (stereo unspecified) yielded an EC50 of 6.26 µM. `Cc1ccccc1N=Nc1ccc(O)c2ncccc12` was tested, and the EC50 was 5.04 µM. With `O=C(c1cc2ccccc2o1)N1CCN(Cc2ccc3c(c2)OCO3)CC1` the EC50 was > 35 µM (inactive). With `O=C(NC1=NCCS1)c1cccc(NC(=O)c2ccco2)c1` the EC50 was > 35 µM (inactive). `C=CCn1c(N2CCCCCC2)nc2c1c(=O)[nH]c(=O)n2C` was tested, and the EC50 was > 35 µM (inactive). With `Cc1sc(NC(=O)c2ccco2)c(CN2CCC(C)CC2)c1C` the EC50 was > 35 µM (inactive). Work on `CCOC(=O)c1c(C)[nH]c(C(=O)N/N=C\c2ccccc2O)c1C` yielded an EC50 of 5.66 µM. For `Cc1ccn2c(Nc3ccccc3C)c(-c3ccccn3)nc2c1`, the EC50 was 6.66 µM. `O=[N+]([O-])c1ccc(O)c(/C=N/Nc2ccccn2)c1` gave an EC50 of 6.39 µM. `O=C(Nc1ccccc1O)c1ccc(NS(=O)(=O)c2cccc3cccnc23)cc1` was tested, and the EC50 was 6.84 µM. `COCCNC(=O)c1cc(-c2cccs2)on1` gave an EC50 of 12 µM.
